Experimental data as given in ChEMBL document CHEMBL4130634, “Discovery of Reversible DNA Methyltransferase and Lysine Methyltransferase G9a Inhibitors with Antitumoral in Vivo Efficacy” (J Med Chem, 2018).

Columns and labels:
[1] = biological target: DNA (cytosine-5)-methyltransferase 1 (Homo sapiens, UniProt P26358); assay: Inhibition of human DNMT1 using polydeoxyinosine polydeoxycytosine DNA as substrate after 15 mins in presence of SAM by TR-FRET assay
[2] = biological target: T1, Histone-lysine N-methyltransferase EHMT2 (Homo sapiens, UniProt Q96KQ7); assay: Inhibition of human G9a using biotinylated-H3K9 peptide as substrate after 1 hr in presence of SAM by TR-FRET assay
T1 sequence (Q96KQ7 whole entry): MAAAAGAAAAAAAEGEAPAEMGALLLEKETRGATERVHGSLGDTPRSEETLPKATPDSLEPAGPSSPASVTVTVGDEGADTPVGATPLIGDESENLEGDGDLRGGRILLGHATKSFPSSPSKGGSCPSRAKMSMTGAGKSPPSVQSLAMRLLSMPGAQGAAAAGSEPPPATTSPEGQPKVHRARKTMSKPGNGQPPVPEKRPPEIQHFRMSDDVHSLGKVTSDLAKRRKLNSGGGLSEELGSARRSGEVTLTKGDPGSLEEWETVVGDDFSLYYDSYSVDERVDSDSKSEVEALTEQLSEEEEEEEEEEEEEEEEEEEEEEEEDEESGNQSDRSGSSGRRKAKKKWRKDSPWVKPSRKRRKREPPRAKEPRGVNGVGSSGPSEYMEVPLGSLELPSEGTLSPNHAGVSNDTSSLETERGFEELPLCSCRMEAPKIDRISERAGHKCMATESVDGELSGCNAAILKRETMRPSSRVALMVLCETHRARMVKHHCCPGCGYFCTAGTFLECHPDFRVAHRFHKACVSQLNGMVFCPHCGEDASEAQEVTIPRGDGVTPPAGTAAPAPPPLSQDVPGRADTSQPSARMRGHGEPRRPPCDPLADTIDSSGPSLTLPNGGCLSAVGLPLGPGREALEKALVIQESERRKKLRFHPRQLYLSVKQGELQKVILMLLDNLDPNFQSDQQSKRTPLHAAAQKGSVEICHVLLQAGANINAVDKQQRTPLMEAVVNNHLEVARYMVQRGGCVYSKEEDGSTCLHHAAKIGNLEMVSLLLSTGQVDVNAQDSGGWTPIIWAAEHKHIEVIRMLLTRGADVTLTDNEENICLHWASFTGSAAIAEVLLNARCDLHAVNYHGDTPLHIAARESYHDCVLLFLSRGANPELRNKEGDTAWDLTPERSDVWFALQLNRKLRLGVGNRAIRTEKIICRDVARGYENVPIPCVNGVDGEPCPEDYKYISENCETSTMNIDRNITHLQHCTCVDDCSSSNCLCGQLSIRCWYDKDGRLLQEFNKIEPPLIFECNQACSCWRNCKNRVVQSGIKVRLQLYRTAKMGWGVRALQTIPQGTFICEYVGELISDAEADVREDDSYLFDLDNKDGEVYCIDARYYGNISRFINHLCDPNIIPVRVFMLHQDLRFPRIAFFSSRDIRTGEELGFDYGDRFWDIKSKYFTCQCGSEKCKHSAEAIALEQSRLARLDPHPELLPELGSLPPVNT

[3] = test system: THLE-2; assay: Growth inhibition of human THLE2 cells after 72 hrs by MTS assay; assay type: cell-based; settings: thle-2, 72 h
[4] = Growth inhibition of human CEMO1 cells after 48 hrs by MTS assay; assay type: functional
[5] = test system: MV4-11; assay: Growth inhibition of human MV4-11 cells after 48 hrs by MTS assay; assay type: functional; settings: MV4-11, 48 h
[6] = test system: OCI-Ly10; assay: Growth inhibition of human OCI-LY10 cells at 1 uM after 48 hrs by MTS assay relative to control; assay type: functional; settings: OCI-Ly10, 48 h, read-out: GI
[7] = test system: OCI-Ly3; assay: Growth inhibition of human OCI-LY3 cells at 1 uM after 48 hrs by MTS assay relative to control; assay type: functional; settings: OCI-Ly3, 48 h, read-out: GI
[8] = Permeability of the compound at 50 uM after 18 hrs by PAMPA; assay type: ADME; settings: read-out: permeability
[9] = Growth inhibition of human CEMO1 cells at 1 uM after 48 hrs by MTS assay relative to control; assay type: functional; settings: read-out: GI
[10] = Growth inhibition of human LAL-CUN-2 cells at 1 uM after 48 hrs by MTS assay relative to control; assay type: functional; settings: read-out: GI
[11] = Growth inhibition of human CEMO1 cells at 10 uM after 48 hrs by MTS assay relative to control; assay type: functional; settings: read-out: GI
[12] = test system: OCI-Ly3; assay: Growth inhibition of human OCI-LY3 cells after 48 hrs by MTS assay; assay type: functional; settings: OCI-Ly3, 48 h
[13] = test system: OCI-Ly10; assay: Growth inhibition of human OCI-LY10 cells after 48 hrs by MTS assay; assay type: functional; settings: OCI-Ly10, 48 h
[14] = Growth inhibition of human LAL-CUN-2 cells after 48 hrs by MTS assay; assay type: functional

Sequence of DNA (cytosine-5)-methyltransferase 1 (P26358 whole entry): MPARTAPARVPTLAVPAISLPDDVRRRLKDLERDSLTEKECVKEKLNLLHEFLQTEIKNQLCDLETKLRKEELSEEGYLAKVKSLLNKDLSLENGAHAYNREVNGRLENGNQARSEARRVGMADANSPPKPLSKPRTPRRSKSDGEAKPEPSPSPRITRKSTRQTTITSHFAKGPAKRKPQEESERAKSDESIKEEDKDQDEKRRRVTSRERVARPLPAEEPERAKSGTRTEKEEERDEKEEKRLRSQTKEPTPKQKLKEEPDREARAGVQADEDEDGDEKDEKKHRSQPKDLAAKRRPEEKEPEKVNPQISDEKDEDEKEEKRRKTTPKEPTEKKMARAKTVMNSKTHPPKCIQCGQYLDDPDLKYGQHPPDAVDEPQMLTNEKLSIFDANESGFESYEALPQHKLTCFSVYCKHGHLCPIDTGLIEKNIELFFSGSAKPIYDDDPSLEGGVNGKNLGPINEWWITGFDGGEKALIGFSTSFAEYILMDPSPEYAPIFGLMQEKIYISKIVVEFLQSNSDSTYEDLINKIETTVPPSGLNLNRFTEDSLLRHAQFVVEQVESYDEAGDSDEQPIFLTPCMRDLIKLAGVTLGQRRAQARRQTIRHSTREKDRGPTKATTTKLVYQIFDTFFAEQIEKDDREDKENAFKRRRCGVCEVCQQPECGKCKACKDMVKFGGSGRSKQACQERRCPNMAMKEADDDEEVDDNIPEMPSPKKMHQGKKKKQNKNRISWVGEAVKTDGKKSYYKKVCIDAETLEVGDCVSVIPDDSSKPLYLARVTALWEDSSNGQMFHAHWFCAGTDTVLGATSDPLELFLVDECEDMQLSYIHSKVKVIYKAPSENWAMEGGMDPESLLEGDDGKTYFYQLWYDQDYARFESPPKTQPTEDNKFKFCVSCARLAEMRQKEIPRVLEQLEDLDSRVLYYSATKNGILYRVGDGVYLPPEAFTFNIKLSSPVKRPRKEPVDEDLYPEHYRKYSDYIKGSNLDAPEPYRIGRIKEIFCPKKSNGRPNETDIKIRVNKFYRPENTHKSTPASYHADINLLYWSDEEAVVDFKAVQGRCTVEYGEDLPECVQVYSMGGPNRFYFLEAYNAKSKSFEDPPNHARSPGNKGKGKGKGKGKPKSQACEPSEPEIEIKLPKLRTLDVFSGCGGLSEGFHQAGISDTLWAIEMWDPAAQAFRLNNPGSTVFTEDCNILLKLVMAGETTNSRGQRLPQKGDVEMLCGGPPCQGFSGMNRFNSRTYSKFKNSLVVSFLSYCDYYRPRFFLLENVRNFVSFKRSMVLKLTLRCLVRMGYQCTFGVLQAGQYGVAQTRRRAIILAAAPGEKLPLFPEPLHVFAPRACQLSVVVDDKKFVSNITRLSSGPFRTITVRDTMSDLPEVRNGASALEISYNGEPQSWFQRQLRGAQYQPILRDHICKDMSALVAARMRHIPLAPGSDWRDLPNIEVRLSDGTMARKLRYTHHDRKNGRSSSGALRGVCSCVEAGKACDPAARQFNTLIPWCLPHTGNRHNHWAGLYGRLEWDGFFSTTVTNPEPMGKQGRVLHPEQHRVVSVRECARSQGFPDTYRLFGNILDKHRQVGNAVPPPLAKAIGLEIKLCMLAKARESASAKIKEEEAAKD

IC50 [1] [nM]	IC50 [2] [nM]	SMILES	Papp at 18 h, 50 µM [8] [×10⁻⁶ cm/s]	inhibition of growth at 1 µM [9] [%]	other results
618	48	CCNCc1ccc(-c2cc(NC3CCN(C)CC3)c3cc(OC)c(OCCCN4CCCC4)cc3n2)o1	0.13	0	inhibition of growth at 1 µM [6]: 0%; inhibition of growth at 1 µM [10]: 3%; inhibition of growth at 1 µM [7]: 0%
969	44	COc1cc2c(NC3CCN(C)CC3)cc(-c3ccn(C)n3)nc2cc1OCCCN1CCCC1	–	10	inhibition of growth at 1 µM [6]: 0%; inhibition of growth at 1 µM [10]: 16%; inhibition of growth at 1 µM [7]: 16%
1250	142	COc1cc2c(NC3CCN(C)CC3)cc(-c3cc[nH]c(=O)c3)nc2cc1OCCCN1CCCC1	–	–	–
945	42	COc1cc2c(NC3CCN(C)CC3)cc(N3CCN(C)CC3)nc2cc1OCCCN1CCCC1	–	–	inhibition of growth at 10 µM [11]: 14%
929	6	COc1cc2c(NC3CCN(C)CC3)cc(C)nc2cc1OCCCN1CCCC1	–	–	inhibition of growth at 10 µM [11]: 14%
1600	264	COc1cc2c(NC3CCN(C)CC3)cc(-c3ccc(C#N)o3)nc2cc1OCCCN1CCCC1	–	–	–
1410	40	COc1cc2c(NC3CCN(C)CC3)cc(-c3cccnc3)nc2cc1OCCCN1CCCC1	0.22	0	inhibition of growth at 1 µM [6]: 17%; inhibition of growth at 1 µM [10]: 16%; inhibition of growth at 1 µM [7]: 12%
1370	27	COc1cc2c(NC3CCN(C)CC3)cc(C3CCC(C)O3)nc2cc1OCCCN1CCCC1 (configuration not stated)	–	–	–
1050	2720	COc1cc2c(NC3CCN(C)CC3)cc(-c3ccc(-c4ccccc4)o3)nc2cc1OCCCN1CCCC1	–	–	–
> 10000	637	COc1cc2c(NC3CCN(C)CC3)cc(C(F)(F)F)nc2cc1OCCCN1CCCC1	–	24	–
1270	148	COc1cc2c(NC3CCN(C)CC3)cc(-c3ccc(CN(C)C)o3)nc2cc1OCCCN1CCCC1	–	–	–
4420	17	COc1cc2c(NC3CCN(C)CC3)cc(C3CCOCC3)nc2cc1OCCCN1CCCC1	0.22	20	inhibition of growth at 1 µM [6]: 3%; inhibition of growth at 1 µM [10]: 6%; inhibition of growth at 1 µM [7]: 0%
> 10000	1080	COc1cc2c(NC3CCN(C)CC3)cc(-c3ccnn3C)nc2cc1OCCCN1CCCC1	0.09	–	–
2250	336	COc1cc2c(NC3CCN(C)CC3)nc(-c3ccc(C)o3)nc2cc1OCCCN1CCCC1	–	–	–
2290	136	COc1cc(NC2CCN(C)CC2)c2cc(OC)c(OCCCN3CCCC3)cc2n1	–	1	–
1070	3140	COc1cc2c(NC3CCN(C)CC3)cc(-c3cc4ccccc4o3)nc2cc1OCCCN1CCCC1	–	–	–
759	15	COc1cc2c(NC3CCN(C)CC3)cc(-c3ccc(CO)o3)nc2cc1OCCCN1CCCC1	0.05	0	inhibition of growth at 1 µM [6]: 1%; inhibition of growth at 1 µM [10]: 19%; inhibition of growth at 1 µM [7]: 26%
582	52	COc1cc2c(NC3CCN(C)CC3)cc(-c3ccccc3C)nc2cc1OCCCN1CCCC1	–	–	–
957	12	COc1cc2c(NC3CCN(C)CC3)cc(C3=CCOCC3)nc2cc1OCCCN1CCCC1	0.37	8	inhibition of growth at 1 µM [6]: 16%; inhibition of growth at 1 µM [10]: 0%; inhibition of growth at 1 µM [7]: 6%
300	–	Nc1ncn([C@@H]2O[C@H](CO)[C@@H](O)[C@H]2O)c(=O)n1 [AZACITIDINE]	–	–	–

SMILES	IC50 [1] [nM]	IC50 [2] [nM]	Papp at 18 h, 50 µM [8] [×10⁻⁶ cm/s]	inhibition of growth at 1 µM [9] [%]	other results
COc1cc2c(NC3CCN(C)CC3)cc(-c3ccc(C)s3)nc2cc1OCCCN1CCCC1	230	43	2.91	–	LC50 [3]: 4060 nM; GI50 [4]: 555 nM; GI50 [5]: 3100 nM; inhibition of growth at 1 µM [6]: 42%; inhibition of growth at 1 µM [7]: 21%
COc1cc2c(NC3CCN(C)CC3)cc(C3CCCCC3)nc2cc1OCCCN1CCCC1	497	2	1.98	20	LC50 [3]: 34800 nM; GI50 [5]: > 10000 nM
COc1cc2c(NC3CCNCC3)cc(-c3ccc(C)o3)nc2cc1OCCCN1CCCC1	137	6	0.2	–	LC50 [3]: 8850 nM; GI50 [4]: 1980 nM; GI50 [12]: 1270 nM; GI50 [13]: > 4000 nM; GI50 [14]: > 5000 nM
COc1cc2c(NC3CCN(C)CC3)cc(-c3ccc(C)[nH]3)nc2cc1OCCCN1CCCC1	232	0.5	–	–	LC50 [3]: 7680 nM; GI50 [4]: 1650 nM; GI50 [12]: 896 nM; inhibition of growth at 1 µM [10]: 12%; GI50 [13]: 915 nM
CCc1ccc(-c2cc(NC3CCN(C(C)C)CC3)c3cc(OC)c(OCCCN4CCCC4)cc3n2)o1	284	3	3.83	–	LC50 [3]: 1720 nM; GI50 [4]: 441 nM; GI50 [5]: 971 nM
COc1cc2c(NC3CCN(C)CC3)cc(C3=CCCCC3)nc2cc1OCCCN1CCCC1	494	6	2.09	–	LC50 [3]: 7580 nM; GI50 [4]: 1180 nM; GI50 [14]: 4290 nM
COc1cc2c(NC3CCN(C)CC3)cc(-c3ccccc3)nc2cc1OCCCN1CCCC1	1050	15	1.69	–	LC50 [3]: 5620 nM; GI50 [4]: 658 nM; GI50 [5]: 2600 nM; GI50 [12]: 717 nM; inhibition of growth at 1 µM [10]: 7%; GI50 [13]: 420 nM
CCc1ccc(-c2cc(NC3CCN(C4CC4)CC3)c3cc(OC)c(OCCCN4CCCC4)cc3n2)o1	274	24	5.56	–	LC50 [3]: 703 nM; GI50 [4]: 917 nM; GI50 [5]: 3510 nM; GI50 [12]: 1560 nM; GI50 [13]: 236 nM
Nc1ncn([C@H]2C[C@H](O)[C@@H](CO)O2)c(=O)n1 [DECITABINE]	30	–	–	–	–
